In ChEMBL document CHEMBL1201862, “PubChem BioAssay data set” (2004):
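How tested: cells in 96-well plates exposed to compound for 48 hours at five concentrations. GI50 marks 50% less growth.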 Active and inactive are the calls of the source. Cut-off read from the data, not from the text of the source: active = GI50 up to about 1.1 µM and inactive = higher.

Columns and labels:
Assay in all cases: inhibition of tumour cell growth, NCI panel, 48 h
ACHN = tested on: ACHN
U-251 = tested on: U-251
MCF7 = tested on: MCF7
MOLT-4 = tested on: MOLT-4
K562 = tested on: K562
EKVX = tested on: EKVX
SNB-19 = tested on: SNB-19
HOP-92 = tested on: HOP-92
CCRF-CEM = tested on: CCRF-CEM
KM12 = tested on: KM12
NCI-H226 = tested on: NCI-H226
NCI-H522 = tested on: NCI-H522
HCT-15 = tested on: HCT-15
DU-145 = tested on: DU-145
NCI-H23 = tested on: NCI-H23
MDA-MB-231 = tested on: MDA-MB-231
RXF 393 = tested on: RXF 393
SK-MEL-2 = tested on: SK-MEL-2
HOP-62 = tested on: HOP-62
SNB-75 = tested on: SNB-75

Structure (SMILES)	GI50 (ACHN)	GI50 (U-251)	GI50 (MCF7)	GI50 (MOLT-4)	GI50 (K562)	GI50 (EKVX)	GI50 (SNB-19)	GI50 (HOP-92)	GI50 (CCRF-CEM)	GI50 (KM12)	GI50 (NCI-H226)	GI50 (NCI-H522)	GI50 (HCT-15) [µM]	GI50 (DU-145)	GI50 (NCI-H23)	GI50 (MDA-MB-231)	GI50 (RXF 393)	GI50 (SK-MEL-2)	GI50 (HOP-62)	GI50 (SNB-75)
O=C(CCc1ccc(O)cc1)NCCc1ccc(O)cc1	62.4 µM (inactive)	> 100 µM (inactive)	> 100 µM (inactive)	> 100 µM (inactive)	> 100 µM (inactive)	> 100 µM (inactive)	> 100 µM (inactive)	> 100 µM (inactive)	> 100 µM (inactive)	> 100 µM (inactive)	> 100 µM (inactive)	> 100 µM (inactive)	> 100	> 100 µM (inactive)	> 100 µM (inactive)	> 100 µM (inactive)	> 100 µM (inactive)	> 100 µM (inactive)	> 100 µM (inactive)	
Oc1ccc(C(c2ccc(O)cc2)c2ccc(O)cc2)cc1	27.3 µM (inactive)	23.2 µM (inactive)	32.4 µM (inactive)	20.6 µM (inactive)		15.3 µM (inactive)	24.4 µM (inactive)	18.1 µM (inactive)	33.6 µM (inactive)	16.7 µM (inactive)	10.4 µM (inactive)	17.1 µM (inactive)	23.9	27.4 µM (inactive)	19.2 µM (inactive)	16.3 µM (inactive)	17.2 µM (inactive)	19.8 µM (inactive)		
O=C1NC(=S)N/C1=C\c1ccc(Br)s1	> 100 µM (inactive)	> 100 µM (inactive)	> 100 µM (inactive)	21.4 µM (inactive)	34.8 µM (inactive)	10.3 µM (inactive)	90.2 µM (inactive)	82 µM (inactive)	25.3 µM (inactive)	> 100 µM (inactive)	84.9 µM (inactive)	82.8 µM (inactive)	91.2	> 100 µM (inactive)	> 100 µM (inactive)	> 100 µM (inactive)	> 100 µM (inactive)	99.8 µM (inactive)	> 100 µM (inactive)	
OCC1OC(O)C(/N=C\c2ccc3c(c2)OCO3)C(O)C1O (stereo not given)	> 100 µM (inactive)	> 100 µM (inactive)	> 100 µM (inactive)	> 100 µM (inactive)		> 65.3 µM (inactive)	> 100 µM (inactive)	> 100 µM (inactive)		> 100 µM (inactive)	> 100 µM (inactive)	> 100 µM (inactive)	> 100	> 100 µM (inactive)	> 100 µM (inactive)	> 100 µM (inactive)	> 100 µM (inactive)	> 100 µM (inactive)	> 100 µM (inactive)	> 100 µM (inactive)
N#Cc1sc2c(c1OC(=O)c1ccc(C(F)(F)F)cc1)c(=O)n(-c1ccccc1)c(=S)n2-c1ccccc1	26.2 µM (inactive)	20.7 µM (inactive)	30.1 µM (inactive)	19.5 µM (inactive)	28.2 µM (inactive)	24.9 µM (inactive)	34 µM (inactive)	19.7 µM (inactive)	10.2 µM (inactive)	27.7 µM (inactive)	29.8 µM (inactive)	0.107 µM (active)	21.8	38.5 µM (inactive)	29.6 µM (inactive)	31.3 µM (inactive)	14.8 µM (inactive)		31.1 µM (inactive)	27.4 µM (inactive)
CCCCCCCCCCCCP(=O)(O)OCC(N)C(=O)O (stereo not given)	40.3 µM (inactive)	11.4 µM (inactive)	42.1 µM (inactive)	16.9 µM (inactive)	39.4 µM (inactive)	93.3 µM (inactive)	16.6 µM (inactive)	25.4 µM (inactive)			40.7 µM (inactive)	5.22 µM (inactive)	17.5	40.4 µM (inactive)	48.9 µM (inactive)	16.4 µM (inactive)	48.1 µM (inactive)	27.9 µM (inactive)	16.1 µM (inactive)	11.4 µM (inactive)
N#Cc1ccc(/C=N/NC(=O)CSCC(=O)N/N=C/c2ccc(C#N)cc2)cc1	> 100 µM (inactive)	48.1 µM (inactive)	> 100 µM (inactive)	> 100 µM (inactive)	> 100 µM (inactive)	> 100 µM (inactive)	> 100 µM (inactive)	> 100 µM (inactive)		> 100 µM (inactive)	> 100 µM (inactive)	> 100 µM (inactive)	> 100	> 100 µM (inactive)	> 100 µM (inactive)	29.1 µM (inactive)	> 100 µM (inactive)	> 100 µM (inactive)	> 100 µM (inactive)	26.3 µM (inactive)
C=C(C)[C@@H]1CCc2c(c(C)cc(O)c(=O)c2O)C1	1.18 µM (inactive)	1.3 µM (inactive)	1.48 µM (inactive)	1.4 µM (inactive)	0.881 µM (active)	2.49 µM (inactive)	1.13 µM (inactive)	0.573 µM (active)	0.412 µM (active)	3.03 µM (inactive)	2.72 µM (inactive)	0.247 µM (active)	0.0838	2.18 µM (inactive)	2.58 µM (inactive)	> 52.1 µM (inactive)	2.6 µM (inactive)	4.79 µM (inactive)		3.68 µM (inactive)
COc1cc2c(/C=C3/C(=O)Nc4ccc(Cl)cc43)c(Cl)[nH]c2cc1C	0.587 µM (active)	0.394 µM (active)	0.489 µM (active)	0.294 µM (active)	0.394 µM (active)		0.408 µM (active)	10.6 µM (inactive)	0.332 µM (active)	0.416 µM (active)	1.1 µM (active)	2.16 µM (inactive)	0.449	1.36 µM (inactive)	0.916 µM (active)	0.74 µM (active)	0.375 µM (active)	0.966 µM (active)	0.439 µM (active)	0.215 µM (active)
N#Cc1c(N)c2c(c(-c3ccccc3)c1-c1ccccc1)C(=O)N(N)C2=O	> 100 µM (inactive)	> 100 µM (inactive)	> 100 µM (inactive)	70.6 µM (inactive)	> 100 µM (inactive)	> 100 µM (inactive)	> 100 µM (inactive)	26.9 µM (inactive)	42.7 µM (inactive)	> 100 µM (inactive)	> 100 µM (inactive)	38.6 µM (inactive)	> 100	> 100 µM (inactive)	> 100 µM (inactive)	> 100 µM (inactive)	58.7 µM (inactive)	> 100 µM (inactive)		> 100 µM (inactive)
Cc1cc(O)c2c(c1O)C(=O)c1cccc(O)c1C2=O [ISLANDICIN]	> 100 µM (inactive)	> 100 µM (inactive)	> 100 µM (inactive)		> 100 µM (inactive)	> 100 µM (inactive)	> 100 µM (inactive)	> 100 µM (inactive)	> 100 µM (inactive)	> 100 µM (inactive)	> 100 µM (inactive)	47.8 µM (inactive)	> 100	> 100 µM (inactive)	> 100 µM (inactive)	> 100 µM (inactive)	> 100 µM (inactive)	> 100 µM (inactive)	> 100 µM (inactive)	43.1 µM (inactive)
